Test results from patent publication US5208240A, “8-substituted purines as selective adenosine receptor agents” (Merrell Dow Pharmaceuticals Inc., priority 1991, dated 1993).

Columns and labels:
A1-adenosine receptor = experiment: Adenosine A1 receptor binding (method of Goodman et al.)
Procedure: (§1) IC50 values for A1 -adenosine receptor binding is determined according to the method of Goodman et al. [Mol. Pharmacol. 21:329-35, 1982]. IC50 values for A2 -adenosine receptor binding is determined according to the method of Bruns et al. [Mol. Pharmacol. 29:331-46, 1986].

A2-adenosine receptor = biological target: T1, A2-adenosine receptor (Rattus norvegicus, UniProt P30543); experiment: Adenosine A2 receptor binding (method of Bruns et al.)
T1 construct: from tissue
T1 sequence (P30543 whole entry): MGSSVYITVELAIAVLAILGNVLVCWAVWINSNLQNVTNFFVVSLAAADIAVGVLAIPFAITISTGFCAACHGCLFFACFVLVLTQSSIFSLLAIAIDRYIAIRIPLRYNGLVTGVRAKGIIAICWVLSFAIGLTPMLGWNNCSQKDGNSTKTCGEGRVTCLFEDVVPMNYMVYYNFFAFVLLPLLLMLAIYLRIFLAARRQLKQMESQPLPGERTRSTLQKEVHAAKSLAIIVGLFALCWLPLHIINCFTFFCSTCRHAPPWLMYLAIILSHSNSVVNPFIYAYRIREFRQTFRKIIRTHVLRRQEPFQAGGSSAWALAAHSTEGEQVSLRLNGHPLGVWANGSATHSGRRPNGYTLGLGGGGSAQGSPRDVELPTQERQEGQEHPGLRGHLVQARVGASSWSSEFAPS
Procedure: as §1

SMILES	IC50 (A1-adenosine receptor) [µM]	IC50 (A2-adenosine receptor) [µM]
CCCn1c(=O)c2nc(C(CC)c3ccc(OCC(=O)O)cc3)[nH]c2n(CCC)c1=O (stereo not drawn) [Compound 101673, 2-[4-[1-(2,3,6,9-Tetrahydro-1,3-dipropyl-2,6-dioxo-1H-purin-8-yl)propyl]phenoxy]acetic acid]	1.18	> 10
CCCn1c(=O)c2nc(C(C)Cc3ccc(OCC(=O)O)cc3)[nH]c2n(CCC)c1=O (stereo not drawn) [Compound 101699, 2-[4-[2-(2,3,6,9-Tetrahydro-1,3-dipropyl-2,6-dioxo-1H-purin-8-yl)propyl]phenoxy]acetic acid]	0.327	5.7
CCCn1c(=O)c2nc(C(C)Cc3ccc(OCC(=O)NCCN)cc3)[nH]c2n(CCC)c1=O (single isomer, unassigned; (+)) [Compound 101993, (+)-N (2-Aminoethyl)-2-[4-[2-(2,3,6,9-tetrahydro-1,3-dipropyl-2,6-dioxo-1H-purin-8-yl)propyl]phenoxy]-acetamide]	0.06	1.8
CCCn1c(=O)c2nc(C(CC)c3ccc(OCC(=O)NCCN)cc3)[nH]c2n(CCC)c1=O (stereo not drawn) [Compound 102130, N-(2Aminoethyl)-2-[4-[1-(2,3,6,9-tetrahydro-1,3-dipropyl-2,6-dioxo-1H-purin-8-yl)propyl]phenoxy]-acetamide]	0.0044	0.06

Results, then the compound that gave them:

IC50 (A1-adenosine receptor) [µM]	IC50 (A2-adenosine receptor) [µM]	SMILES
0.014	0.036	CCCn1c(=O)c2nc(C(C)Cc3ccc(OCC(=O)NCCN)cc3)[nH]c2n(CCC)c1=O (stereo not drawn) [Compound 101345, N-(2-Aminoethyl)-2-[4-[2-(2,3,6,9-tetrahydro-1,3-dipropyl-2,6-dioxo-1H-purin-8-yl)propyl]phenoxy]-acetamide]
0.01	0.3	CCCn1c(=O)c2nc(C(C)Cc3ccc(OCC(=O)NCCN)cc3)[nH]c2n(CCC)c1=O (single isomer, unassigned; (-)) [Compound 100991, (-)-N-(2-Aminoethyl)-2-[4-[2-(2,3,6,9-tetrahydro-1,3-dipropyl-2,6-dioxo-1H-purin-8-yl)propyl]phenoxy]-acetamide]
